Experimental data: patent US20170313604A1, “Wastewater Treatment Method” (PeroxyChem LLC, priority 2016, published 2017)

System: E. coli
Assay: Full scale trial of peracetic acid disinfection at a wastewater treatment plant (E. coli by IDEXX Colisure method)
Parameters: species or system Escherichia coli
Protocol: A full scale trial of peracetic acid (15% PAA:23% hydrogen peroxide) disinfection was performed at a wastewater treatment plant in Tennessee, USA. The wastewater contained a high level of colored, aromatic molecules discharged from industrial sources involved in the processing of cotton seeds and other sources of lignin and bio-based polymers. The water quality, and as a result the peracetic acid (PAA) demand, was heavily dependent upon the cyclic discharge rates from these industrial sources. Thus, the PAA efficacy in reducing bacterial concentrations within the wastewater was not only dependent upon the overall flow rate of the WWTP, but also upon the time-dependent water quality. The time-dependent water quality demand on PAA at the treatment plant required the inclusion of a PAA feed-forward dosing scheme to insure that the proper dosing of PAA needed to achieve the target microbial reduction was maintained.
Initial testing consisted of collecting continuous, on-line data for four wastewater quality parameters: color, chemical oxygen demand (COD), oxidation/reduction potential (ORP) and UV transmittance (UVT) at 254 nm. Peracetic acid was measured in situ via the Prominent Dulcotest CTE sensor. The sensor was a membrane-capped amperometric, two electrode sensor for the measurement of PAA in aqueous solution. […] PAA contained in the sample water diffused through the membrane, causing a potential difference between electrodes. The primary signal was converted by the amplifier electronics of the sensor into a 4-20 mA, temperature corrected, output signal, which was optimally controlled via the DULCOMETER diaLog DACa controller. Wastewater color was measured on-line utilizing a ChemScan UV-3151 Series Analyzer with a flow-through sensor. The analyzer drew a sample of wastewater from the untreated side of the disinfection channel, representative of the influent wastewater, to the main unit, which was located in the control house. Wastewater COD and % UVT (% ultraviolet transmittance at 254 nm) were measured on-line using a submersible YSI CarboVis model 701 unit. E. coli analysis were performed by a third-party laboratory, using the IDEXX Colisure method.
The data for each quality parameter then was correlated to PAA demand, accounting for wastewater flow rate. E. coli concentrations were measured at the inflow to the disinfection channel, at the mid-point of the disinfection channel and at the outflow.
Subsequent testing was performed with wastewater color as the water quality parameter for feed-forward control of the PAA dose (PAAdemand), coupled with flow pacing.
At least three cycles of water quality (minimum to maximum wastewater color) were tested with flow rates ranging from 50 to 130 MGD. Sixty three E. coli concentrations were measured during this period. […]

[1] = effluent after PAA dosing with color feed-forward control plus flow pacing, flow 50 to 130 MGD, power-outage measurement eliminated

CC(=O)OO [PAA, peracetic acid]
PAAset point to achieve the desired E. coli reduction (at demand neutral performance, this wastewater): 7 ppm | E. coli concentration (all but one of sixty three measurements) (below the permitted daily maximum, the exception occurred in a power outage with no PAA dosed): < 487 cfu/100 mL | E. coli arithmetic mean concentration [1]: 18 cfu/100 mL | E. coli geomean concentration [1]: 12 cfu/100 mL
